Laboratory results published in ChEMBL document CHEMBL1150495, “Balanced angiotensin II receptor antagonists. I. The effects of biphenyl ortho-substitution on AT1/AT2 affinities” (Bioorg Med Chem Lett, 1994).

Tests used:
[1] = target: T1, Type-2 angiotensin II receptor (Rattus norvegicus, UniProt P35351); test: Displacement of [125I]- Ang II from angiotensin II AT2 receptor in rat adrenal cortical microsomes; design: species or system Microsome
T1 sequence (P35351 whole entry): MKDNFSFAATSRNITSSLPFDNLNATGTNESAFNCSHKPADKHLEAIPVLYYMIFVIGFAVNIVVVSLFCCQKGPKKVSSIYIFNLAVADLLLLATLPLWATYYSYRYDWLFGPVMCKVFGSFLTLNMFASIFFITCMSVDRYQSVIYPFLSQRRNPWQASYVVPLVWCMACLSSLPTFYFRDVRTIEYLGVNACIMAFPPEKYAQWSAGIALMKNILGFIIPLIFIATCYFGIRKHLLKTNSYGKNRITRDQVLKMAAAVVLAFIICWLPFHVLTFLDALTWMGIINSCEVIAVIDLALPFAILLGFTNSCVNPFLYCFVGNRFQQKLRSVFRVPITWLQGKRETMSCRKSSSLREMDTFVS

[2] = target: T2, Angiotensin II receptor (AT-1) type-1 (Rattus norvegicus, UniProt P29089+P25095); test: Displacement of [125I]- Ang II from angiotensin II AT1 receptor in rat adrenal cortical microsomes; design: species or system Microsome
T2 sequence (P29089 whole entry): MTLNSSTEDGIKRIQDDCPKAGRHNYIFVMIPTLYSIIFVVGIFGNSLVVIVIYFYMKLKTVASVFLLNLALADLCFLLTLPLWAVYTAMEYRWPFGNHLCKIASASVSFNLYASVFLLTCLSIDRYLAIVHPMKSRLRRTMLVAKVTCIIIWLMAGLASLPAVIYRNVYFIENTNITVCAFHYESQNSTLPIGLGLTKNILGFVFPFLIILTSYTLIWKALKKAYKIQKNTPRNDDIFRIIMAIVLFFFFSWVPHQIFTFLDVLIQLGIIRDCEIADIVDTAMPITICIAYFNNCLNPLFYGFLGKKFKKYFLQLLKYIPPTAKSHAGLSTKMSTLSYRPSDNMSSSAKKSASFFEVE
T2 sequence (P25095 whole entry): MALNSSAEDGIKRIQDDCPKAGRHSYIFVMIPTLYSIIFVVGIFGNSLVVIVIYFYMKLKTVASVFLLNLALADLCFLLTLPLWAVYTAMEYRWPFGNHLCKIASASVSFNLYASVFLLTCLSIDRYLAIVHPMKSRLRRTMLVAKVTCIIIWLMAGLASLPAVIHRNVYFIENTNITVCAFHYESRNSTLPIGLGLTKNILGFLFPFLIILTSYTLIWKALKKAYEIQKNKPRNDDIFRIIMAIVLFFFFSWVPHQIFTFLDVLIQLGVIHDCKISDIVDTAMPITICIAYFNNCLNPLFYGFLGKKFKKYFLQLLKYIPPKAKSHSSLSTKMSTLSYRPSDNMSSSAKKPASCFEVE

[3] = target: T1, Type-2 angiotensin II receptor; test: Compound was tested for the inhibition of angiotensin II AT2 receptor by displacement of [125I]- Ang II to rat adrenal cortical microsomes
[4] = target: Angiotensin II receptor (Homo sapiens) (UniProt P30556+P50052); test: Affinity towards angiotensin receptor was expressed as the ratio of Angiotensin II AT2 receptor over Angiotensin II AT1 receptor; type: protein assay
Rattus norvegicus [5] = test: Effective dose to lower blood pressure by 30 mmHg in renal hypertensive rats by peroral administration; type: functional; conditions: po
Rattus norvegicus [6] = test: Reduction of blood pressure by 30 mmHg in renal hypertensive rats by intravenous administration; type: functional
Rattus norvegicus [7] = test: Duration required to lower blood pressure by 30 mmHg in renal hypertensive rats at a dose of 3.0 mg/kg; type: functional

Row | Compound | IC50 [1] [nM] | IC50 [2] [nM] | IC50 [3] [nM] | Ratio [4] | ED30 (Rattus norvegicus [5]) [mg/kg] | ED30 (Rattus norvegicus [6]) [mg/kg] | Duration (Rattus norvegicus [7]) [h]
1 | CCCc1nc(C(F)(F)C(F)(F)F)c(C(=O)O)n1Cc1ccc(-c2ccccc2-c2nn[nH]n2)cc1 | > 10000 | 3 | – | – | – | – | –
2 | CCCNC(=O)NS(=O)(=O)c1ccccc1-c1ccc(Cn2c(CCC)nc(SC)c2C(=O)O)cc1 | 775 | 0.3 | – | – | – | – | –
3 | CCCc1nc(C(F)(F)C(F)(F)F)c(C(=O)O)n1Cc1ccc(-c2ccccc2-c2nn[nH]n2)cc1Br | – | – | 80 | – | – | – | –
4 | CCCc1nc(CC)c(C=O)n1Cc1ccc(-c2ccccc2S(=O)(=O)NC(=O)c2ccccc2)cc1 | 500 | 2.4 | – | – | – | – | –
5 | CCCc1nc(CC)c(C=O)n1Cc1ccc(-c2ccccc2-c2nn[nH]n2)cc1Cl | 500 | 10 | – | – | – | 0.87 | –
6 | CCCc1nc(CC)c(C=O)n1Cc1ccc(-c2ccccc2-c2nn[nH]n2)cc1 | > 10000 | 2 | – | – | – | 0.04 | –
7 | CCCc1nc(CC)c(C=O)n1Cc1ccc(-c2ccccc2-c2nn[nH]n2)cc1Br | 700 | 20 | – | – | – | 1.05 | –
8 | CCCc1nc(CC)c(C=O)n1Cc1ccc(-c2ccccc2-c2nn[nH]n2)cc1C | 1000 | 40 | – | – | – | 1.4 | –
9 | CCCc1nc(CC)c(C=O)n1Cc1ccc(-c2ccccc2-c2nn[nH]n2)cc1F | 3000 | 7 | – | – | – | 0.17 | –
10 | CCCCOC(=O)NS(=O)(=O)c1ccccc1-c1ccc(Cn2c(CCC)nc(CC)c2C(C)=O)cc1 | 80 | 2 | – | – | 0.25 | 0.26 | –

The remaining compounds from weak to strong by IC50 [1], led by results:

Row | IC50 [1] [nM] | IC50 [2] [nM] | IC50 [3] [nM] | Ratio [4] | Compound | ED30 (Rattus norvegicus [5]) [mg/kg] | ED30 (Rattus norvegicus [6]) [mg/kg] | Duration (Rattus norvegicus [7]) [h]
11 | 40 | 2 | – | – | CCCCOC(=O)NS(=O)(=O)c1ccccc1-c1ccc(Cn2c(CCC)nc(CC)c2C(=O)OC)cc1 | – | – | –
12 | 20 | 7 | – | – | CCCCOC(=O)NS(=O)(=O)c1ccccc1-c1ccc(Cn2c(CCC)nc(CC)c2C(=O)OC)c([N+](=O)[O-])c1 | – | – | –
13 | 20 | 2 | – | – | CCCCOC(=O)NS(=O)(=O)c1ccccc1-c1ccc(Cn2c(CCC)nc(CC)c2C(C)=O)c(C)c1 | 0.55 | 0.24 | –
14 | 20 | 2 | – | – | CCCCOC(=O)NS(=O)(=O)c1ccccc1-c1ccc(Cn2c(CCC)nc(CC)c2C(=O)OC)c(Br)c1 | – | – | –
15 | 12 | 6 | – | – | CCCCOC(=O)NS(=O)(=O)c1ccccc1-c1ccc(Cn2c(CCC)nc(CC)c2C(C)=O)c(Cl)c1 | 0.96 | 0.11 | –
16 | 10 | 3 | – | – | CCCCOC(=O)NS(=O)(=O)c1ccccc1-c1ccc(Cn2c(CCC)nc(CC)c2C(=O)OC)c(C)c1 | 0.56 | 0.15 | –
17 | 10 | 2 | – | – | CCCCOC(=O)NS(=O)(=O)c1ccccc1-c1ccc(Cn2c(CCC)nc(CC)c2C=O)cc1 | 0.18 | 0.23 | –
18 | 9 | 3 | – | – | CCCCOC(=O)NS(=O)(=O)c1ccccc1-c1ccc(Cn2c(CCC)nc(CC)c2C=O)c(C)c1 | 0.86 | 0.23 | –
19 | 7 | – | – | 2.3 | CCCCOC(=O)NS(=O)(=O)c1ccccc1-c1ccc(Cn2c(CCC)nc(CC)c2C(=O)OC)c(Cl)c1 | 0.44 | 0.51 | >24
20 | 4 | 0.6 | – | – | CCCCOC(=O)NS(=O)(=O)c1ccccc1-c1ccc(Cn2c(CCC)nc(CC)c2C(=O)OC)c(F)c1 | < 0.3 | 0.11 | –
21 | 3 | – | – | 3 | CCCCOC(=O)NS(=O)(=O)c1ccccc1-c1ccc(Cn2c(CCC)nc(CC)c2C(C)=O)c(F)c1 | 0.48 | 0.1 | >24
22 | 2 | 0.7 | – | – | CCCCOC(=O)NS(=O)(=O)c1ccccc1-c1ccc(Cn2c(CCC)nc(CC)c2C=O)c(F)c1 | < 1 | 0.13 | –
23 | 1 | – | – | 1 | CCCc1nc(CC)c(C(=O)OC)n1Cc1ccc(-c2ccccc2S(=O)(=O)NC(=O)OCCC(C)C)cc1F | 0.67 | 0.12 | >24
